# Read-outs that look alike come from different tables or passages of the source.
# How the values were obtained:
# ovine COX-1 = target: T1, ovine COX-1 (Ovis aries, UniProt P05979); experiment: Inhibition of ovine COX-1, TLC assay ([1-14C]-arachidonic acid), time-dependent
# T1 sequence (P05979 25-600): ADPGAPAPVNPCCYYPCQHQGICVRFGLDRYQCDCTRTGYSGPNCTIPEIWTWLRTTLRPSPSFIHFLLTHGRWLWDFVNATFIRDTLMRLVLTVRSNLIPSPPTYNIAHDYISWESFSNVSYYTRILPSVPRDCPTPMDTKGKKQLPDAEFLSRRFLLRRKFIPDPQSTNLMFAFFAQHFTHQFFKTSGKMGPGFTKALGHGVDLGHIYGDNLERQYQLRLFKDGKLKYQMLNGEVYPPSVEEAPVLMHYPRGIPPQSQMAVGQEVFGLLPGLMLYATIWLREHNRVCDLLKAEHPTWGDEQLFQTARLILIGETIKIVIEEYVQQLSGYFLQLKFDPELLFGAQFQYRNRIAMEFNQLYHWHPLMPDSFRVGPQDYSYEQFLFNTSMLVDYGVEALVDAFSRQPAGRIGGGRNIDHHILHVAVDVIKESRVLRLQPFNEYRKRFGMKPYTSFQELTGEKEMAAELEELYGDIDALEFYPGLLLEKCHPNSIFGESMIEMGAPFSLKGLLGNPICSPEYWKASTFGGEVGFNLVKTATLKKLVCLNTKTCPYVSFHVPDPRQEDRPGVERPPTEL
# human COX-2 = target: T2, human COX-2 (Homo sapiens, UniProt P35354); experiment: Inhibition of purified human COX-2, TLC assay ([1-14C]-arachidonic acid), time-dependent; settings: for Selectivity: COX-2 selectivity ratio, IC50 COX-1 / IC50 COX-2
# T2 sequence (P35354 18-604): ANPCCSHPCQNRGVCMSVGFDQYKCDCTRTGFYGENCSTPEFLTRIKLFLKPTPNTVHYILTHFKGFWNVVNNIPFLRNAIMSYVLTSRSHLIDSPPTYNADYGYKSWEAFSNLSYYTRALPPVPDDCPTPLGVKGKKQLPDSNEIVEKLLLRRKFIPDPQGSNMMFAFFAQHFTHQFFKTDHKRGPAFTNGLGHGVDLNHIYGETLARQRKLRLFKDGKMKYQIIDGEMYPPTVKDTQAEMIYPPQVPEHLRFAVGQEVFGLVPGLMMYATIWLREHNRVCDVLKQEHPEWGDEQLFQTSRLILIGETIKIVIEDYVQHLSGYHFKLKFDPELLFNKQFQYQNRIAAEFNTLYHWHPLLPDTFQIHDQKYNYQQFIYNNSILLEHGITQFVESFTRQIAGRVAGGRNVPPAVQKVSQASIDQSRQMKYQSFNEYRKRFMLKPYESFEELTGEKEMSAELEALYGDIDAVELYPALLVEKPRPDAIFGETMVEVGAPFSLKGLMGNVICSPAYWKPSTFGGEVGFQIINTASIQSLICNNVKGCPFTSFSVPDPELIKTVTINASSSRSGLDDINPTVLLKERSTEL
# [1] = target: T3, COX-2 in activated RAW264.7 macrophages (Mus musculus, UniProt Q05769); experiment: Inhibition of COX-2 activity (PGD2 production) in intact activated RAW264.7 cells; type: cell-based, murine; settings: FIG. 1; inhibitor 0-1 μM, 30 minutes at 37° C.; LPS + IFN-γ activated
# T3 construct: PGD2 from [1-14C]-arachidonic acid by TLC
# T3 sequence (Q05769 18-604): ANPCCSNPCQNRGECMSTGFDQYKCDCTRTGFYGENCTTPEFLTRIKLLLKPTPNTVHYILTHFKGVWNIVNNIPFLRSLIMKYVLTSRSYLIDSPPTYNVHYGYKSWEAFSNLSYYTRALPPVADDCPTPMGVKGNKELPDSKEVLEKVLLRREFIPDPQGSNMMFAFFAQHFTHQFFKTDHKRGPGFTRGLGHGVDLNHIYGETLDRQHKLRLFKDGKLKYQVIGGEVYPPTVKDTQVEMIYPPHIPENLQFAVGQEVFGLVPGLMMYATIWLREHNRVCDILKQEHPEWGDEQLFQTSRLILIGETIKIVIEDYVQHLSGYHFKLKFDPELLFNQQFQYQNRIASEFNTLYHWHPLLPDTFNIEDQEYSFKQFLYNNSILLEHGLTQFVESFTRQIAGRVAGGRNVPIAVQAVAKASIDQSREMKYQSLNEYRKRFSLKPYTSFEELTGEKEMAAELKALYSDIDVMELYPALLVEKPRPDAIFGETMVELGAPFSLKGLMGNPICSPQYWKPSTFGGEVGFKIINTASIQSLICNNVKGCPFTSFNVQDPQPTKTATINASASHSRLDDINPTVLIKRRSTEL
# Procedure: The ability of these compounds to inhibit COX-2 in intact cells was assayed in activated RAW264.7 macrophages in which COX-2 activity was induced by pathologic stimuli. The macrophages were treated with lipopolysaccharide ([…]) and γ-interferon (10 U/mL) for 7.5 hours to induce COX-2 and then treated with several concentrations of each of inventive Compounds 5c, 5e, and 9e.
# More specifically, low passage number murine RAW264.7 cells were grown in DMEM containing 10% heat-inactivated FBS. Cells (6.2×10^6 cells/T25 flask) were activated with 500 ng/mL LPS and 10 units/mL IFN-γ in serum-free DMEM for 7 hours. Vehicle (DMSO) or inhibitor (inventive Compound 5c, 5e, or 9e) in DMSO (0-1 μM) was added for 30 minutes at 37° C. […] Aliquots (200 μL) were removed into termination solution and total products were quantitatively determined by the TLC assay as described earlier.
# [2] = test system: carrageenan-induced rat foot paw edema; experiment: Carrageenan-induced rat foot paw edema assay; type: in vivo, rat (male Sprague Dawley); settings: FIG. 2 / FIG. 3; gavage 1 hour after carrageenan, paw volume at 3 hour post-injection
# Procedure: All procedures were performed according to approved animal protocols (#M/98/251, Vanderbilt University Animal Care Committee). Male Sprague Dawley rats (Harlan Sprague Dawley, Indianapolis, Ind.) (150-175 grams) were fasted for 18 hours and then injected with λ-carrageenan (0.1 ml of a 1% suspension in 0.85% saline, Fluka BioChemika, Milwaukee, Wis.) into the right hind footpad. After 1 hour, 90 μl inhibitor (either Compound 5c or Compound 9e) in DMSO was added to 6 ml corn oil, and the rats were gavaged with 0.5 ml corn oil containing DMSO or containing DMSO and inhibitor.
# The ipsilateral footpad volume was measured with a water displacement plethysmometer (Ugo Basile, Italy, distributed by Stoelting Co., Wood Dale, Ill.) at 3 hour post-injection and compared to the initial pre-injection paw volume. Inhibitor concentrations were varied as shown in FIG. 2 (Compound 5c) and FIG. 3 (Compound 9e), with n=6 animals per group in duplicate experiments.
Selectivity (human COX-2; Table 1 esters),IC50 (ovine COX-1) [nM],IC50 (human COX-2) [nM],Molecule,further results
,4000,50,"COc1ccc2c(c1)c(CCNC(=O)c1ccc(Cl)cc1)c(C)n2C(=O)c1ccc(Cl)cc1 [Compound 9e, N-(p-chlorobenzoyl)-5-methoxy-2-methylindole-3-ethyl-(p-chloro)benzamide]",inhibition of production of PGD2 [1]: inhibition of production of PGD2; inhibition of edema in the rat footpad [2]: inhibition of edema in the rat footpad; Selectivity (human COX-2; inventive amides table): 80
,> 66000,,"COc1ccc2c(c1)c(CCNC(=O)c1ccc(Cl)cc1)c(C)n2Cc1ccc(Br)cc1 [Compound 9h, N-(p-bromobenzyl)-5-methoxy-2-methylindole-3-ethyl(p-chloro) benzamide]",

# Continued, molecule first:
Molecule,Selectivity (human COX-2; Table 1 esters),IC50 (ovine COX-1) [nM],IC50 (human COX-2) [nM],further results
"CCCCC(=O)OCCc1c(C)n(C(=O)c2ccc(Cl)cc2)c2ccc(OC)cc12 [Compound 5a, N-(p-chlorobenzoyl)-5-methoxy-2-methylindole-3-ethyl-valerate]",> 1015,,,"IC50 (ovine COX-1; read-out: IC50 COX-1, Table 1 esters, ovine COX-1 (44 nM) preincubated 25° C. 15 min, [1-14C]-arachidonic acid 50 μM, 37° C., 30 seconds, duplicate): > 66000 nM; IC50 (human COX-2; read-out: IC50 COX-2, Table 1 esters, time-dependent inhibition, [1-14C]-arachidonic acid 50 μM, 37° C., 30 seconds, duplicate): 650 nM"
"COc1ccc2c(c1)c(CCOC(=O)c1ccc(C)cc1)c(C)n2C(=O)c1ccc(Cl)cc1 [Compound 5b, N-(pchlorobenzoyl)-5-methoxy-2-methylindole-ethyl-(p-methyl)benzoate]",> 1320,> 66000,50,
"COc1ccc(C(=O)OCCc2c(C)n(C(=O)c3ccc(Cl)cc3)c3ccc(OC)cc23)cc1 [Compound 5c, N-(p-chlorobenzoyl)-5-methoxy-2-methylindole-3ethylo-(p-methoxy)benzoate]",> 1466,> 66000,40,inhibition of production of PGD2 [1]: inhibition of production of PGD2; inhibition of edema in the rat footpad [2]: inhibition of edema in the rat footpad
"COc1ccc2c(c1)c(CCOC(=O)c1ccccc1OC)c(C)n2C(=O)c1ccc(Cl)cc1 [Compound 5d, N-(pchlorobenzoyl)-5-methoxy-2-methylindole-3thyl-(o-methoxy)benzoate]",> 1320,> 66000,50,
"COc1ccc2c(c1)c(CCOC(=O)c1ccc(Cl)cc1)c(C)n2C(=O)c1ccc(Cl)cc1 [Compound 5e, N -(p-chlorobenzoyl)-5-methoxy-2-methylindole-3-ethyl-(p-chloro)benzoate]",> 1320,> 66000,50,inhibition of production of PGD2 [1]: inhibition of production of PGD2
"COc1ccc2c(c1)c(CCOC(=O)c1ccc(Br)cc1)c(C)n2C(=O)c1ccc(Cl)cc1 [Compound 5f, N-(p-Chlorobenzoyl)-5-methoxy-2-methylindole-3-ethyl-(p-bromo)benzoate]",> 1466,> 66000,40,
"COc1ccc2c(c1)c(CCOC(=O)c1ccc(I)cc1)c(C)n2C(=O)c1ccc(Cl)cc1 [Compound 5g, N-(phlorobenzoyl)-5-methoxy-2-methylindole-3-ethyl(-p-iodo)benzoate]",> 1320,> 66000,50,
"COc1ccc2c(c1)c(CCOC(=O)c1ccc(Cl)cc1)c(C)n2Cc1ccc(Br)cc1 [Compound 5h, N-(p-bromobenzyl)-5-methoxy-2-methylindole-3-ethyl-(p-chloro)benzoate]",,> 66000,,
N-(p-chlorobenzoyl)-5-methoxy-2-methylindole-3-ethyl-(2-phenyl)ethylamide [Compound 9i],,,,"IC50 (ovine COX-1; read-out: IC50 COX-1, inventive amides table): ~17000 nM; Selectivity (human COX-2; inventive amides table): ~ 425; IC50 (human COX-2; read-out: IC50 COX-2, inventive amides table): ~40 nM"

# Reference: patent US6306890A, “Esters derived from indolealkanols and novel amides derived from indolealkylamides that are selective COX-2 inhibitors” (Vanderbilt University, priority 1999, dated 2001)
